Where “and” joins values, the source holds several entries; their conditions need not be identical. Equal values may be shown once.
What was measured:
Assay type in all cases: in vivo, human
[1] = tested on: IGF-1; test: Example 1 double blind, placebo controlled, randomized study: IGF-1 levels
Method: (§1) A double blind, placebo controlled, randomized study was designed to investigate the ability of growth hormone secretagogues to be used for the treatment of cell proliferative disorders.
(§2) Subjects were separated in to two groups: the placebo group and the RC-1291 group. The RC-1291 group received 50 mg of RC-1291 in two 25 mg capsules daily. The capsules were microcrystalline cellulose, magnesium stearate and RC-1291 HCl (25 mg) in a hard gelatin capsule. The placebo group received two placebo capsules daily. The placebo capsule was microcrystalline cellulose in a hard gelatin capsule.
(§3) One hour before breakfast subjects were administered the two capsules after fasting during the night.
(§4) At various points over the course of the three month study, levels of IGFBP-3 and IGF-1 were measured in both the placebo and RC-1291 groups.

[2] = tested on: IGFBP-3; test: Example 2 second double blind, placebo controlled, randomized study: serum IGFBP-3; conditions: for IGFBP-3: serum
Method: (§5) A second double blind, placebo controlled, randomized study was designed to investigate the ability of growth hormone secretagogues to be used for the treatment of cell proliferative disorders.
(§6) Subjects were separated into groups and administered a placebo or RC-1291 (Formula III). Each group was administered the appropriate number of capsules. The capsules were microcrystalline cellulose, magnesium stearate and RC-1291 HCl (25 mg) in a hard gelatin capsule. The placebo capsule was microcrystalline cellulose in a hard gelatin capsule. The RC-1291 groups received 50 mg or 100 mg of RC-1291 daily.
(§7) Serum was obtained at office visits, clearly labeled, and stored frozen at −20° C. prior to shipment on dry ice to CRL, Lenexa, Kans. for analysis. Samples were assayed for IGF-1 and IGFBP-3.

[3] = Example 3 cancer cachexia: lean body mass and total body mass by DEXA, subjects of Example 1; conditions: FIG. 11
Method: (§8) The placebo controlled, randomized studies described above were used to investigate the ability of growth hormone secretagogues to treat subjects having cancer cachexia.
(§9) Total body mass and lean body mass were measured for subjects described in Example 1 (see FIGS. 10, and 11, respectively.) Lean body mass and total body mass were measured by dual-energy x-ray absorptiometry (DEXA). Total body weight was measured for subjects described in Example 2 (see, FIG. 12).

[4] = tested on: IGF-1; test: Example 2 second double blind, placebo controlled, randomized study: serum IGF-1; conditions: for IGF-1: serum
Method: as §5, §6, §7

[5] = Example 3 cancer cachexia: total body weight, subjects of Example 2; conditions: 50 and 100 mg, FIG. 12
Method: as §8, §9

[6] = tested on: IGFBP-3; test: Example 1 double blind, placebo controlled, randomized study: IGFBP-3 levels
Method: as §1, §2, §3, §4

[7] = 50 mg RC-1291 daily, capsules, at 4 weeks, N = 32
[8] = 50 mg RC-1291 daily, capsules, at 8 weeks, N = 32
[9] = 50 mg RC-1291 daily, capsules, at 12 weeks, N = 32
[10] = Example 1, 50 mg daily, vs placebo
[11] = Example 2, 50 mg or 100 mg daily, vs placebo

With `CN(C)N(C)C(=O)[C@@]1(Cc2ccccc2)CCCN(C(=O)[C@@H](Cc2c[nH]c3ccccc23)NC(=O)C(C)(C)N)C1` [RC-1291] the “IGF-1 change from baseline (nM) At 4 weeks” value [1, 7] was 6.626 nM, the “IGF-1 change from baseline (nM) At 8 weeks” value [1, 8] was 4.729 nM and the “IGF-1 change from baseline (nM) At 12 weeks” value [1, 9] was 5.046 nM. For the same compound, the “levels of IGF-1 (in words)” value [1, 10] was “raises the levels of both IGFBP-3 and IGF-1 in a statistically significant manner”, the IGFBP-3 ([2]; 50 mg daily, week 1) was 580 ng/mL and 20.19 nM and the IGFBP-3 ([2]; 50 mg daily, week 2) was 540 ng/mL and 18.79 nM. For the same compound, the IGFBP-3 ([2]; 50 mg daily, week 4) was 610 ng/mL and 21.23 nM, the IGFBP-3 ([2]; 100 mg daily, week 1) was 900 ng/mL and 31.32 nM and the IGFBP-3 ([2]; 100 mg daily, week 2) was 670 ng/mL and 23.32 nM. The IGFBP-3 ([2]; 100 mg daily, week 4) was 970 ng/mL and 33.76 nM, the “levels of IGFBP-3 (in words)” value [2, 11] was “raised the levels of both IGFBP-3 and IGF-1 in a statistically significant manner” and the “change in lean body mass (in words)” value [3] was “gained lean body mass and total body weight”. The IGF-1 ([4]; 50 mg daily, week 1) was 40.69 ng/mL and 5.32 nM, the IGF-1 ([4]; 50 mg daily, week 2) was 57 ng/mL and 7.45 nM and the IGF-1 ([4]; 50 mg daily, week 4) was 46.5 ng/mL and 6.08 nM. The IGF-1 ([4]; 100 mg daily, week 1) was 80.25 ng/mL and 10.49 nM, the IGF-1 ([4]; 100 mg daily, week 2) was 76.25 ng/mL and 9.97 nM and the IGF-1 ([4]; 100 mg daily, week 4) was 73.4 ng/mL and 9.60 nM. For the same compound, the “levels of IGF-1 (in words)” value [4, 11] was “raised the levels of both IGFBP-3 and IGF-1 in a statistically significant manner”, the “change in total body weight (in words)” value [5] was “gained lean body mass and total body weight” and the “IGFBP-3 change from baseline (nM) At 4 weeks” value [6, 7] was 26.89 nM. For the same compound, the “IGFBP-3 change from baseline (nM) At 8 weeks” value [6, 8] was 17.7 nM, the “IGFBP-3 change from baseline (nM) At 12 weeks” value [6, 9] was 20.66 nM and the “effects on IGFBP-3 relative to effects on IGF-1, on a molar basis” value ([6]; Example 1, 50 mg daily) was “greater than 3 fold”. For the same compound, the “levels of IGFBP-3 (in words)” value [6, 10] was “raises the levels of both IGFBP-3 and IGF-1 in a statistically significant manner”.
